# Assay results taken from patent US9822373B2, “Mutant cells for protein secretion and lignocellulose degradation” (The Regents of the University of California, priority 2011, dated 2017).
# Legend:
# [1] = test system: Neurospora crassa; assay: Total Avicelase activity of bioreactor culture supernatant; format: cell-based; settings: supernatant of the 24-hour induction time point
# Method: Cellulase production was carried out in a 3.7 L bioreactor (BioEngineering AG) at an operating volume of 1 L. The bioreactor was equipped with one 48 mm Rushton impeller and four equally spaced baffles to provide adequate mixing. Impeller speed was controlled at 200 rpm for 8 hours to allow spore germination followed by 500 rpm for the remainder of the experiment. The temperature was maintained at 25° C., and medium pH was controlled at 5.5 using 40% phosphoric acid and 1:5 diluted ammonium hydroxide. The dissolved oxygen was maintained at a level greater than 20% of the saturation value of the medium by varying the aeration rate between 0.5 and 3 VVM in response to the dissolved oxygen tension. Minimal growth medium with 1% w/v sucrose as the sole carbon source (unless otherwise noted) was inoculated with 10^9 conidia. After 24 hours initial growth, cellulase production was induced with either cellobiose or Avicel® added to a final concentration of 0.2% w/v. […]
# Sucrose, fructose, glucose and cellobiose were measured on a DIONEX ICS-3000 HPLC (Dionex Corp., Sunnyvale, Calif.) using a CarboPac PA20 Analytical Column (3×150 mm) and a CarboPac PA20 guard column (3×30 mm) at 30° C. […] Sugars were detected using PAD, Four-Potential Carbohydrate Waveform and Peaks were analyzed using the Chromeleon software package.
# [2] = test system: cellulase genes (cbh-1, gh5-1, gh6-2); assay: Quantitative RT-PCR, cellulase gene expression stated for the genes together; format: cell-based, Neurospora crassa
# Method: Conidia from strains were inoculated at an OD595 equal to 0.05 in 50 ml Vogel's salts (45) with 2% w/v sucrose in a 250 ml Erlenmeyer flask and grown under constant light at 200 rpm for 16 hours. Biomass was then spun at 4200 rpm for 10 minutes and washed in Vogel's salts twice to remove any excess sucrose. […] Cultures were induced for 4 hrs under constant light at 200 rpm. The culture biomass was then harvested by filtration over a Whatman glass microfiber filter (GF/F) on a Buchner funnel and washed with 50 ml Vogel's salts. The biomass was flash frozen in liquid nitrogen and stored at −80° C. Three independent biological duplicates (flasks) were evaluated for each time point.
# Total RNA from frozen samples was isolated using Zirconia/Silica beads (0.5 mm diameter; Biospec) and a Mini-Beadbeater-96 (Biospec) with 1 mL TRIzol reagent (Invitrogen) according to the manufacturer's instructions. The total RNA was further purified by digestion with TURBO DNA-free (Ambion) and an RNeasy kit (Qiagen). RNA concentration and integrity was checked by Nanodrop and agarose gel electrophoresis.
# Quantitative RT-PCR was performed using the EXPRESS One-Step SYBR GreenER Kit (Invitrogen) and the StepOnePlus Real-Time PCR System (Applied Biosystems). Reactions were performed in triplicate with a total reaction volume of 10 μl including 300 nM each forward and reverse primers and 75 ng template RNA. Data Analysis was performed by the StepOne Software (Applied Biosystems) using the Relative Quantitation/Comparative CT (ΔΔCT) setting. Data was normalized to the endogenous control actin with expression on sucrose as the reference sample.
# [3] = test system: cbh-2 / gh6-2 (NCU09680); assay: Quantitative RT-PCR of cbh-2/gh6-2 expression after 4 h induction with a carbon source; format: cell-based, Neurospora crassa
# Method: Strains were inoculated at an OD595 equal to 0.05 in 50 ml Vogel's salts with 2% (wt/vol) sucrose in a 250 ml Erlenmeyer flask and grown under constant light at 200 rpm for 16 hours. The biomass was then spun at 4000 rpm for 10 minutes and washed in Vogel's twice to remove any excess sucrose. The biomass was then added to a new 50 ml culture with 2% (wt/vol) sucrose, cellobiose (Sigma) or Avicel® PH 101 (Avicel®). Cultures were induced for 4 hours under constant light at 200 rpm. The culture biomass was then harvested by filtration over a Whatman glass microfiber filter (GF/F) on a Buchner funnel and washed with 50 ml Vogel's, biomass was flash frozen in liquid Nitrogen and stored at −80° C.
# Total RNA from frozen samples was isolated using Zirconia/Silica beads (0.2 g, 0.5 mm diameter; Biospec) and a Mini-Beadbeater-96 (Biospec) with 1 mL TRIzol reagent (Invitrogen) according to manufacturer's instructions. Total RNA was further purified by digestion with TURBO DNA-free (Ambion) and an RNeasy kit (Qiagen). RNA integrity was checked by Nanodrop and agarose gel electrophoresis.
# Quantitative RT-PCR was performed using the EXPRESS One-Step SYBR GreenER Kit (Invitrogen) and the StepOnePlus Real-Time PCR System (Applied Biosystems). Reactions were performed in triplicate with a total reaction volume of 10 ul including 300 nM each forward and reverse primers and 75 ng template RNA. Data Analysis was performed by the StepOne Software (Applied Biosystems) using Relative Quantitation/Comparative CT (ΔΔCT). […]
# Conidia from strains were inoculated at an OD595 equal to 0.05 in 50 ml Vogel's salts (45) with 2% w/v sucrose in a 250 ml Erlenmeyer flask and grown under constant light at 200 rpm for 16 hours. […] Three independent biological duplicates (flasks) were evaluated for each time point. […]
# Quantitative RT-PCR was performed using the EXPRESS One-Step SYBR GreenER Kit (Invitrogen) and the StepOnePlus Real-Time PCR System (Applied Biosystems). […] Data Analysis was performed by the StepOne Software (Applied Biosystems) using the Relative Quantitation/Comparative CT (ΔΔCT) setting. […]
smiles,measurement,setting,value
O=C[C@H](O)[C@@H](O)[C@H](O[C@@H]1O[C@H](CO)[C@@H](O)[C@H](O)[C@H]1O)[C@H](O)CO [cellobiose],"aggregate Avicelase activity, glucose equivalents",[1]; Δ3βG strain,0.296 mg/mL
same,"aggregate Avicelase activity, glucose equivalents",[1]; Δ3βGΔcre strain,0.424 mg/mL
same,"induction of cbh-1, gh6-2, or gh5-1 expression","[2]; individual β-glucosidase deletion strains (Δgh1-1, Δgh3-3 or Δgh3-4), 4 hr induction, 0.2%",did not show a significant induction
same,induction of lignocellulolytic genes,[2]; wild-type N. crassa (WT) grown on the substance as sole carbon source,not induced
same,cellulase gene induction,"[2]; Δgh1-1Δgh3-3 double mutant, 4 hr induction, 0.2%",showed some cellulase gene induction
same,cbh-2 relative expression compared to sucrose,"[3]; WT strain, 2% carbon source, 4 h induction",no change
same,cbh-2 increase in relative expression over expression on sucrose,"[3]; triple β-glucosidase mutant, 2% carbon source, 4 h induction","2,100 fold"
same,induction of gh6-2,"[3]; Δcre-1 strain, shifted from sucrose to 0.2% cellobiose for 4 hrs",85 fold
